# Assay results reported in ChEMBL document CHEMBL2163233, “3-Oxoisoindoline-1-carboxamides: potent, state-dependent blockers of voltage-gated sodium channel Na(V)1.7 with efficacy in rat pain models” (J Med Chem, 2012).
# How the values were obtained:
# [1] = physchem
# [2] = in vitro; conditions: human, microsomes, CLH
# [3] = in vitro; conditions: rat, microsomes, CLH
# [4] = in vivo; conditions: Sprague-Dawley, rat, iv, 3 umol/kg
# [5] = in vitro; conditions: Sprague-Dawley, rat, plasma
# [6] = in vivo; conditions: Sprague-Dawley, rat, po, 10 umol/kg
# [7] = in vivo; conditions: Sprague-Dawley, rat, po, 10 umol/kg; remark: listed apart in the source
# [8] = in vivo; conditions: Sprague-Dawley, rat, iv, 3 umol/kg; remark: listed apart in the source
# [9] = in vitro; conditions: human, Caco-2
# [10] = in vivo; conditions: Sprague-Dawley, rat, po, 10 umol/kg; remark: listed apart in the source
# [11] = in vivo; conditions: Sprague-Dawley, rat, po, 10 umol/kg; remark: listed apart in the source
# [12] = in vivo; conditions: Sprague-Dawley, rat, po, 10 umol/kg; remark: listed apart in the source
# [13] = in vivo; conditions: Sprague-Dawley, rat, iv, 3 umol/kg; remark: listed apart in the source
# [14] = in vivo; conditions: Sprague-Dawley, rat, iv, 3 umol/kg; remark: listed apart in the source
# [15] = cells; conditions: Homo sapiens, HEK293
Compound,solubility at 4 h [1] [µM],microsomal CLint [2] [µL/min/mg],microsomal CLint [3] [µL/min/mg],further results
Cc1ccc(NC(=O)C2c3ccccc3C(=O)N2CCc2ccccn2)cc1C (centres undefined),34,–,–,–
O=C(NCc1ccc(CC(F)(F)F)cc1)C1c2ccccc2C(=O)N1CCc1ccccn1 (centres undefined),120,190,42,–
O=C(NCc1ccc(OC(F)(F)F)cc1)C1c2ccccc2C(=O)N1CCc1cccnc1 (centres undefined),69,100,28,–
COc1cccc2c1C(C(=O)NCc1ccc(OC(F)(F)F)cc1)N(CCc1ccccn1)C2=O (centres undefined),4,97,37,–
O=C(NCc1ccccc1Br)C1c2ccccc2C(=O)N1CCc1ccccn1 (centres undefined),280,300,20,–
O=C(NCc1ccc(OC(F)(F)F)cc1)C1c2ccccc2C(=O)N1CC(F)(F)c1ccccn1 (centres undefined),2,57,30,–
O=C(NCc1ccc(OC(F)(F)F)cc1)C1c2ccccc2C(=O)N1CCC1CCOCC1 (centres undefined),20,71,< 10,–
O=C(NCc1ccc(OCC(F)(F)F)cc1)C1c2ccccc2C(=O)N1CCc1ccccn1 (centres undefined),42,–,–,–
O=C(NCc1ccc(OC(F)(F)F)cc1)C1c2ccccc2C(=O)N1CC1CC(F)(F)C1 (centres undefined),< 1,25,38,–
O=C(NCc1cccc(OC(F)(F)F)c1)C1c2ccccc2C(=O)N1CCc1ccccn1 (centres undefined),19,370,86,–
O=C(NCc1ccc(OC(F)(F)F)cc1)C1c2ccccc2C(=O)N1CCOc1ccccn1 (centres undefined),< 1,190,39,–
O=C(NCc1ccc(OC(F)(F)F)cc1)C1c2ccccc2C(=O)N1CCc1ccncc1 (centres undefined),61,170,20,–
O=C(NCc1ccc(F)c(OC(F)(F)F)c1)C1c2ccccc2C(=O)N1CCc1ncc(F)cn1 (centres undefined),27,220,110,–
O=C(NCc1ccc(Br)cc1)C1c2ccccc2C(=O)N1CCc1ccccn1 (centres undefined),57,120,31,–
O=C(NCc1ccc(OC(F)(F)F)cc1)C1c2ccccc2C(=O)N1CCN1CCOCC1 (centres undefined),200,49,< 10,–
O=C(NCc1cccc(OC(F)(F)F)c1)C1c2ccccc2C(=O)N1CCc1ncc(F)cn1 (centres undefined),61,180,28,Vd [4]: 0.7 L/kg; fraction unbound [5]: 0.18; AUC [6]: 0.4 µM·h; Tmax [7]: 24 min; clearance [8]: 29 mL/min/kg; Papp [9]: 50 ×10⁻⁶ cm/s; half-life [10]: 486 min; Cmax [11]: 90 nM; bioavailability [12]: 6%; AUC [13]: 2.1 µM·h; half-life [14]: 24 min
O=C(NCc1ccc(C(F)(F)F)cc1)C1c2ccccc2C(=O)N1CCc1ccccn1 (centres undefined),7,180,58,–
CC(C)(C)OC(=O)N1CC(N2C(=O)c3ccccc3C2C(=O)NCc2ccc(OC(F)(F)F)cc2)C1 (centres undefined),30,43,< 10,–
COc1cccc2c1C(=O)N(CCc1ccccn1)C2C(=O)NCc1ccc(OC(F)(F)F)cc1 (centres undefined),6,50,< 10,–
N#C[C@H]1CC[C@H](N2C(=O)c3ccccc3C2C(=O)NCc2ccc(OC(F)(F)F)cc2)CC1 (some centres undefined),200,< 10,11,–
O=C(NCc1ccc(OC(F)(F)F)cc1)C1c2ccccc2C(=O)N1C[C@@H]1CCCO1 (some centres undefined),28,50,28,–
O=C(NCc1ccc(F)c(C(F)(F)F)c1)C1c2ccccc2C(=O)N1CCc1ncc(F)cn1 (centres undefined),14,< 10,< 10,Vd [4]: 0.9 L/kg; IC50 [15]: 33 µM; fraction unbound [5]: 0.13; AUC [6]: 0.2 µM·h; Tmax [7]: 18 min; clearance [8]: 32 mL/min/kg; Papp [9]: 39 ×10⁻⁶ cm/s; half-life [10]: 72 min; Cmax [11]: 100 nM; bioavailability [12]: 4%; AUC [13]: 1.6 µM·h; half-life [14]: 24 min
CC(Cc1ccccn1)N1C(=O)c2ccccc2C1C(=O)NCc1ccc(OC(F)(F)F)cc1 (centres undefined),28,82,< 10,–
O=C(NCc1ccc(OC(F)(F)F)cc1)C1c2ccccc2C(=O)N1C1CC(F)(F)C1 (centres undefined),4,15,< 10,–

Compound,solubility at 4 h [1] [µM],microsomal CLint [2] [µL/min/mg],microsomal CLint [3] [µL/min/mg],further results
O=C(NCc1ccc(OC(F)(F)F)cc1)C1c2cccc(O)c2C(=O)N1CCc1ncc(F)cn1 (centres undefined),2,42,36,–
COc1ccc(CNC(=O)C2c3ccccc3C(=O)N2CCc2ccccn2)cc1 (centres undefined),360,–,–,–
O=C(NCc1ccc(OC(F)(F)F)cc1)C1c2c(F)cccc2C(=O)N1CCc1ccccn1 (centres undefined),17,150,10,–
CCCCNc1ccc(C(=O)OCCN(C)C)cc1 [TETRACAINE],–,–,–,IC50 [15]: 33 µM
CC(C)(C)OC(=O)N1CCC(N2C(=O)c3ccccc3C2C(=O)NCc2ccc(OC(F)(F)F)cc2)CC1 (centres undefined),7,170,89,–
N#CCCN1C(=O)c2ccccc2C1C(=O)NCc1ccc(OC(F)(F)F)cc1 (centres undefined),45,11,16,–
O=C(NCc1ccc(OC(F)(F)F)cc1)C1c2c(O)cccc2C(=O)N1CCc1ccccn1 (centres undefined),< 1,26,23,–
"O=C(NCc1ccc(OC(F)(F)F)cc1)C1c2ccccc2C(=O)N1C1CCC(F)(F)CC1 (single isomer, unassigned)",–,–,–,IC50 [15]: > 10 µM
O=C(NCc1ccc(OCC(F)(F)F)nc1)C1c2ccccc2C(=O)N1CCc1ccccn1 (centres undefined),88,40,< 10,–
CC1(C(=O)NCc2ccc(OC(F)(F)F)cc2)c2ccccc2C(=O)N1CCc1ccccn1 (racemic),–,> 500,57,–
CC(C)(CN1C(=O)c2ccccc2C1C(=O)NCc1ccc(OC(F)(F)F)cc1)c1ccccn1 (centres undefined),6,40,< 10,–
O=C(NCc1ccc(OC(F)(F)F)cc1)C1c2ccccc2C(=O)N1CCOCC(F)(F)F (centres undefined),3,44,< 10,–
CC(NC(=O)C1c2ccccc2C(=O)N1CCc1ccccn1)c1ccc(OCC(F)(F)F)cc1 (centres undefined),34,204,49,–
O=C(NCc1ccc(OC(F)F)nc1)C1c2ccccc2C(=O)N1CCc1ccccn1 (centres undefined),32,33,< 10,–
Cc1cccc2c1C(C(=O)NCc1ccc(OC(F)(F)F)cc1)N(CCc1ccccn1)C2=O (centres undefined),1,190,59,–
O=C(NCc1ccc(OC(F)(F)F)cc1)C1c2ccccc2C(=O)N1CCc1ncccn1 (centres undefined),310,33,< 10,–
O=C(NCc1ccc(OC(F)(F)F)cc1)C1c2cccc(O)c2C(=O)N1CCc1ccccn1 (centres undefined),15,59,10,–
O=C(NCc1cccc(Br)c1)C1c2ccccc2C(=O)N1CCc1ccccn1 (centres undefined),6,310,47,–
O=C(NCc1ccc(OC(F)(F)F)cc1)C1c2ccccc2C(=O)N1CCc1ncc(F)cn1 (centres undefined),25,53,< 10,Vd [4]: 1.1 L/kg; fraction unbound [5]: 0.092; AUC [6]: 2.1 µM·h; Tmax [7]: 18 min; clearance [8]: 37 mL/min/kg; half-life [10]: 138 min; Cmax [11]: 800 nM; bioavailability [12]: 44%; AUC [13]: 1.4 µM·h; half-life [14]: 24 min
O=C(NCc1ccc(OC(F)(F)F)cc1)C1c2ccccc2C(=O)N1CCCc1ccccn1 (centres undefined),6,> 500,31,–
O=C(NCc1ccc(OC(F)(F)F)cc1)C1c2ccccc2C(=O)N1CCC(F)(F)F (centres undefined),11,< 10,< 10,–
O=C(NCc1ccc(OC(F)(F)F)cc1)C1c2cccc(F)c2C(=O)N1CCc1ccccn1 (centres undefined),26,170,16,–
CC(C)(Cc1ccccn1)N1C(=O)c2ccccc2C1C(=O)NCc1ccc(OC(F)(F)F)cc1 (centres undefined),13,340,67,–
CN(C)CCC=C1c2ccccc2CCc2ccccc21 [AMITRIPTYLINE],–,–,–,IC50 [15]: 12 µM
